Data as given in US20260055081A1, “Metal Chelator Compounds, Coordination Complexes, and Methods of Preparation and Use Thereof” (University of Puerto Rico, priority 2022, published 2026).

Columns and labels:
Leukemia cell lines = assay: NCI 60 five-dose screen, leukemia panel; format: cell-based, human
Description: (§1) National Cancer Institute Cancer Cell Line (NCI 60) Screen of DefNEtTrp. Details of the methodology for NCI 60 cell line screening are described at http://dtp.nci.nih.gov/branches/btb/ivclsp.html. The cells, grown in supplemented RPMI-1640 medium, are seeded in 96 well plates at an appropriate density and incubated for 24 h. The test compounds are dissolved in DMSO and incubated with cells at a single dose of 10.0 μM for 48 h. The assay is terminated by addition of cold trichloroacetic acid, and the cells are fixed and stained with sulforhodamine B. Bound stain is solubilized, and the absorbance is read on an automated plate reader. […] Using the seven absorbance measurements [time zero, […], control growth, (C), and test growth in the presence of drug at the five concentration levels (Tf)], the percentage growth was calculated at each of the drug concentrations levels as: [(Tf−Ti)/(C−Ti)]×100 for concentrations for which Tf≥Ti and [(Tf−Ti)/Ti]×100 for concentrations for which Tf<Ti. Three-dose response parameters (GI50, TGI, and LC50) were calculated for each of the experimental agents in five dose assay. Growth inhibition of 50% (GI50) was calculated from 100×[(Tf−Ti)/(C−Ti)]=50, which was the drug concentration resulting in a 50% reduction in the net protein increase (as measured by sulforhodamine B, SRB staining) in control cells during the drug incubation. The total growth inhibition (TGI) was calculated from Tf=Ti, which was the drug concentration resulting in total growth inhibition and signified the cytostatic effect. The 50% cellular death (LC50) was calculated from 100×[(Tf−Ti)/Ti]=−50, indicating a net loss of cells following treatment which indicated the concentration of drug resulting in a 50% reduction in the measured protein at the end of the drug treatment as compared to that at the beginning. […] Log GI50, log TGI, and log LC50 are the logarithm molar concentrations producing 50% growth inhibition (GI50), a total growth inhibition (TGI), and a 50% cellular death (LC50), respectively.

Jurkat cells [1] = assay: Co-treatment with Q-VD-OPh and Fer-1, cell viability; format: cell-based, human; conditions: 10 μM Fer-1/Q-VD-OPh, treatment with 2 μM, 72 h
Description: FIG. 23 is a bar graph showing observed changes in the % cell viability of Jurkat cells treated with 10 μM Ferrastatin-1/Q-VD-OPh (Fer-1/Q-V-O) in combination and then treated for 72 h with 2 μM DefNetTrp (DNT), or media alone. * p-value <0.01 vs the corresponding non-treated Fer-1/Q-V-O group.

CNS cancer cell lines = assay: NCI 60 five-dose screen, CNS panel; format: cell-based, human; conditions: 48 h
Description: (§2) National Cancer Institute Cancer Cell Line (NCI 60) Screen of DefNEtTrp. Details of the methodology for NCI 60 cell line screening are described at http://dtp.nci.nih.gov/branches/btb/ivclsp.html. The cells, grown in supplemented RPMI-1640 medium, are seeded in 96 well plates at an appropriate density and incubated for 24 h. The test compounds are dissolved in DMSO and incubated with cells at a single dose of 10.0 μM for 48 h. The assay is terminated by addition of cold trichloroacetic acid, and the cells are fixed and stained with sulforhodamine B. Bound stain is solubilized, and the absorbance is read on an automated plate reader. […] Using the seven absorbance measurements [time zero, […], control growth, (C), and test growth in the presence of drug at the five concentration levels (Tf)], the percentage growth was calculated at each of the drug concentrations levels as: [(Tf−Ti)/(C−Ti)]×100 for concentrations for which Tf≥Ti and [(Tf−Ti)/Ti]×100 for concentrations for which Tf<Ti. Three-dose response parameters (GI50, TGI, and LC50) were calculated for each of the experimental agents in five dose assay. […] The total growth inhibition (TGI) was calculated from Tf=Ti, which was the drug concentration resulting in total growth inhibition and signified the cytostatic effect. […]

[2] = tested on: Prostate cancer cell lines; assay: NCI 60 five-dose screen, prostate panel; format: cell-based, human; conditions: 48 h
Description: as §2

[3] = tested on: NCI 60 human tumor cell lines; assay: NCI 60 cancer cell line screen, all cell lines tested; format: cell-based; conditions: 48 h
Description: as §1

Jurkat cells [4] = assay: Fe(III) supplementation cell viability study; format: cell-based, human; conditions: Jurkat supplemented with 2 μM and 5 μM Fe(III) as Fe(Citrate)2 two hours before 2 μM DefNEtTrp, 72 h
Description: Fe(III) supplementation cell viability study. Jurkat cells were seeded into 96-well plates, as indicated in the MTT assay described above. One group of cells was supplemented with 2 μM [Fe(citrate)2]^5− (prepared in situ) while another was supplemented with 5 μM [Fe(citrate)2]^5−. Another group of cells were treated with media alone. After 2 h incubation, half of the cells supplemented with [Fe(citrate)2]^5− were treated with 2 μM DefNEtTrp while the other half was treated with media alone. The final percentage of DMF was maintained at 0.5% (v/v). The MTT assay was performed with these samples (n=6). A student t-test was performed to evaluate the difference in the viability of cells treated with DefNEtTrp and supplemented with and without [Fe(citrate)2]^5−.

[5] = cell lines in which TGI was observed
[6] = Homo sapiens, read-out: GI50 (calculated average)

Nc1cccnc1/C=N/NC(=S)NCCNC(=O)c1ccc(-n2nc(-c3ccccc3O)nc2-c2ccccc2O)cc1 [DefNEtTrp, deferasirox nitrogen ethyl triapine]
GI50 (Leukemia cell lines; Homo sapiens, Leukemia, five-dose, 48 h, read-out: GI50 (calculated average)): 290 nM
TGI (calculated average) (Leukemia cell lines; Leukemia, five-dose, 48 h, cell lines in which TGI was observed): 1.78 µM
antiproliferative behavior against all leukemia cell lines in the NCI screen (Leukemia cell lines; NCI screen): ~100%
change in viability with equimolar Q-VD-OPh and Fer-1 co-treatment (Jurkat cells [1]): three-fold increase in the viability
TGI (calculated average) (CNS cancer cell lines; [5]): 12.43 µM
GI50 (CNS cancer cell lines; [6]): 500 nM
TGI (calculated average) [2, 5]: 18.2 µM
GI50 [2, 6]: 1140 nM
GI50 ([3]; Homo sapiens, five-dose assay, average over all cell lines, read-out: average GI50 concentration, all cell lines): 1200 nM
LC50 ([3]; Homo sapiens, five-dose assay, average over cell lines with 50% cell death): 38.9 µM
share of cell lines tested with total cell growth inhibition ([3]; five-dose assay): 77%
share of tested cell lines with 50% cell death ([3]; five-dose assay): 14%
average TGI concentration ([3]; five-dose assay, average over cell lines in which TGI was observed): 8.5 µM
antiproliferative activity in one-dose test ([3]; one-dose test of 10 μM): very promising broad spectrum antiproliferative activity
viability relative to the non-supplemented group (Jurkat cells [4]): significant increase in viability
